Measured values: patent publication US12599608B2, “Methods for treating cardiac valve disease” (The Regents of the University of California, priority 2018, dated 2026)
“Also recorded” adds a separate entry of the source.

Experiments:
N1^+/− iPSC-derived ECs = assay: Network-based small molecule screen by targeted RNA-seq of 119 genes (KNN and hierarchical clustering); assay type: cell-based, human; details: initial screen, complete agglomeration method
Text: TALEN-engineered isogenic human iPSCs that were either WT (wild-type) or N1^+/− were derived and characterized as detailed in Theodoris et al., Cell. 2015; 160:1072-1086. Isogenic iPSCs (induced pluripotent stem cells) were differentiated into ECs as previously described (Theodoris et al., 2015; White et al., Stem Cells. 2012; 31:92-103). On day 13 of the differentiation process, ECs were greater than 90% double-positive for CD31 (BD #558068) and CD144 (#FAB9381P) by FACS (fluorescence-activated cell sorting) analysis (FIGS. 9G-H). Small molecule experiments (described below) were conducted at day 15 of differentiation.
Starting on day 15 of differentiation, WT ECs were exposed to 10 μM DMSO (dimethyl sulfoxide) (n=80) while isogenic N1^+/− ECs were exposed to either 10 μM DMSO (n=80) or one of the small molecules from the LOPAC (1280 molecules) (Sigma LO1280) or Sheng Ding (315 molecules) chemical libraries. DMSO or small molecules were renewed with EC media (ScienCell #1001) changes on alternating days until the cells were ultimately collected for analysis on day 21. ECs were imaged using the IN Cell Analyzer on day 21 to evaluate morphology and cell death; wells with extensive cell death were eliminated from final analyses. For validation experiments, promising small molecules identified from the initial screen were applied to N1^+/− ECs in duplicate or triplicate along with controls of DMSO-exposed WT and N1^+/− ECs (n=4 each) using the same process as the initial screen described above.
ECs were lysed and RNA was isolated using the Qiagen RNeasy 96-well purification kit. RNA was diluted so that it was between the 10 pg-1 ng range accepted by the Cellular Research Precise targeted RNA-seq (RNA sequencing) system. Targeted RNA-seq libraries were prepared as per the Cellular Research Precise protocol (Rev 03092015), which includes both molecule and sample barcoding. The selected 119 target genes (see Table 1) included 3 low-expressing housekeeping genes for normalization (CHMP2A, C1orf43, REEP5) and either predicted central regulatory nodes or peripheral genes positioned within varied regions of the N1 network to permit identification of small molecules that affected central nodes as well as those that may have a synergistic effect in combination due to regulating different aspects of the network. Briefly, RNA was added to the Precise Encoding Plate containing indexed dT primer, dNTPs, and Spike-in mRNA controls and incubated at 65° C. for 3 minutes followed by cooling on ice. A master-mix of RT enzyme, RNase inhibitor, and buffer was then added to the samples, and they were incubated at 42° C. for 30 minutes followed by 80° C. for 5 minutes. Each plate of samples was combined into a single 2 ml tube and purified with AMPureXP beads. N1 PCR master-mix was added and samples were incubated for 94° C. for 2 minutes, followed by 15 cycles of 94° C. for 30 seconds, 55° C. for 3 minutes, and 68° C. for 1 minute, followed by 68° C. for 7 minutes. Samples were purified with AMPureXP beads and N2 PCR master-mix was added. Samples were incubated with the same thermal cycler program as above for 12 cycles. These final libraries were then purified with AMPureXP beads and analyzed for quality and concentration by Agilent Bioanalyzer and Illumina Library Quantification Kit (KAPA Biosystems), respectively. Libraries were normalized to equivalent concentration and pooled for paired-end 100 bp sequencing on an Illumina HiSeq 2500 instrument.
Sequencing data was analyzed using Cellular Research Precise Analysis Pipeline on the SevenBridges platform, which included analyzing sequencing quality with FASTQC, trimming adapters and filtering reads, demultiplexing based on sample barcodes, aligning reads with Bowtie 2, and determining the number of unique molecular indices per gene. Network inference was based on mutual information of gene expression from all DMSO- and small molecule-exposed samples as described in Margolin et al., BMC Bioinformatics. […]

N1^+/− ECs = assay: Whole transcriptome RNA-seq of N1^+/− ECs treated with network-correcting molecules; assay type: cell-based, human; details: for repressive effect on cadherin-11 mRNA expression: FIG. 9A; for restoration of the N1-dependent network as a whole: FIGS. 2E, 3A
Protocol: ECs were lysed and RNA was isolated using the Qiagen RNeasy Micro purification kit. RNA-seq libraries were constructed using the Clontech SMRTer Stranded RNA-seq Library Prep Kit for Illumina per kit protocol. Libraries were analyzed by Agilent Bioanalyzer, normalized to equivalent concentration, pooled, gel purified, and sequenced 75 bp paired-end on an Illumina NextSeq instrument with 10% PhiX.
Sequencing quality was assessed with FASTQC (located on the web by placing “www.” in front of “bioinformatics.babraham.ac.uk/projects/fastqc/”). Reads were aligned to the hg19 (Homo sapiens assembly February 2009) transcriptome and genome using the Spliced Transcripts Alignment to a Reference (STAR) Aligner (Dobin et al., Bioinformatics. 2012; 29:15-21) and differential expression was analyzed using Cuffdiff (Trapnell et al., Nat Biotechnol. 2012; 31:46-53). HOPACH was used for clustering with the correlation metric (van der Laan and Pollard; located on the web by placing “www.” in front of “bioconductor.org/packages/devel/bioc/manuals/hopach/man/hopach.pdf”. GO analyses were completed using GO-Elite and ToppGene (Chen et al., Nucleic Acids Research. 2009; 37:W305-W311; Zambon et al., Bioinformatics. 2012; 28:2209-2210). Network diagrams were generated using NetworkX (Hagberg et al., SciPy. 2008) based on network connections inferred from mRNA-seq gene expression of isogenic N1^+/− compared to WT ECs with colors based on whole transcriptome RNA-seq gene expression of DMSO- vs small molecule-treated WT and N1^+/− ECs.

Structure (SMILES): CCN1/C(=C/C(C)=O)Sc2ccc(OC)cc21 [TG003, (Z)-1-(3-ethyl-5-methoxy-2,3-dihydrobenzothiazol-2-ylidene)propan-2-one]
- hierarchical clustering of transcriptional profile of treated N1-haploinsufficient ECs with WT ECs (N1^+/− iPSC-derived ECs): cluster with WT ECs
- repression of genes aberrantly activated in N1-haploinsufficient ECs (N1^+/− ECs; FIG. 2A): broadly effective at repressing these genes, albeit to a lesser degree
- repressive effect on cadherin-11 mRNA expression (N1^+/− ECs): strongest repressive effect
- restoration of the N1-dependent network as a whole (N1^+/− ECs): strong restorative effect

Structure (SMILES): COc1cc(/C=C(\C#N)C(=O)Nc2nnc(C(F)(F)F)s2)ccc1OCc1ccc(C(F)(F)F)cc1C(F)(F)F [XCT790, 2E-3-(4-{[2,4-bis(trifluoromethyl)benzyl]oxy}-3-methoxyphenyl)-2-cyano-N-[5-(trifluoromethyl)-1,3,4-thiadiazol-2-yl]acrylamide]
- hierarchical clustering of transcriptional profile of treated N1-haploinsufficient ECs with WT ECs (N1^+/− iPSC-derived ECs): cluster with WT ECs
- repression of genes aberrantly activated in N1-haploinsufficient ECs (N1^+/− ECs; FIG. 2A): most effective at repressing genes aberrantly activated in N1-haploinsufficient ECs
- restoration of transcription of genes repressed in N1-haploinsufficient ECs (N1^+/− ECs; FIG. 2A): effectively restored the transcription of mesoderm and cell cycle checkpoint genes
- correlation of gene expression of treated N1^+/− ECs with WT ECs (N1^+/− ECs; FIG. 2B): correlated most strongly; also recorded: correlate most strongly with WT ECs
- restorative effect on regulatory nodes SOX7 and TCF4 (N1^+/− ECs; FIG. 2D): strongest restorative effect
- repressive effect on cadherin-11 mRNA expression (N1^+/− ECs): strongest repressive effect
- restoration of the N1-dependent network as a whole (N1^+/− ECs): most effective at restoring both aberrantly activated and repressed genes; also recorded: corrected the greatest number of genes to the greatest degree; also recorded: strongest restorative effect on central regions of the network
